Reference: the supplement of paper PMC10307832

Compound: CN(c1ncccc1CNc1nc(Nc2ccc3c(c2)CC(=O)N3)ncc1C(F)(F)F)S(C)(=O)=O + CC(=O)Nc1cccc(-n2c(=O)n(C3CC3)c(=O)c3c(Nc4ccc(I)cc4F)n(C)c(=O)c(C)c32)c1 [Trametinib] (partner 0.02 µM)
Test: relative viability (nuclei count vs DMSO), 5 days (fraction); higher = more cells survive
Procedure, shortened: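 Dosing by pin tool came one day after lung cancer cell lines were seeded in 1536-well plates, using either one drug or a fixed anchor-drug dose plus five library-drug doses (not always all listed) in √10 steps. After 5 days, nuclei were counted on 4× images. Relative viability is treated-well nuclei count divided by vehicle-well nuclei count, and values are medians of duplicate plates.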

Cell Line	relative viability (first compound 0.01 µM)	relative viability (first compound 0.03162 µM)	relative viability (first compound 0.1 µM)	relative viability (first compound 0.3162 µM)	relative viability (first compound 1 µM)
NCI-H727	0.386	0.364	0.404	0.424	0.333
NCI-H838	0.534	0.695	0.501	0.421	0.329
NCI-H1355	0.361	0.41	0.439	0.384	0.357
NCI-H1395	0.979	1.07	1.06	1.14	1.02
NCI-H1437	0.529	0.575	0.415	0.356	0.395
NCI-H1648	0.417	0.435	0.462	0.392	0.301
NCI-H1650	0.647	0.587	0.582	0.57	0.483
NCI-H1651	0.89	0.837	0.816	0.826	0.818
NCI-H1666	0.902	0.853	0.762	0.838	0.658
NCI-H1734	0.602	0.661	0.663	0.719	0.539
NCI-H1755	0.766	0.833	0.786	0.758	0.733
NCI-H1792	0.407	0.632	0.433	0.594	0.42
NCI-H1793	0.473	0.4	0.419	0.519	0.567
NCI-H1915	0.288	0.293	0.293	0.315	0.29
NCI-H1944	0.412	0.45	0.39	0.449	0.412
NCI-H1975	0.358	0.348	0.461	0.342	0.315
NCI-H1993	0.481	0.547	0.669	0.409	0.585
NCI-H2009	0.25	0.263	0.246	0.29	0.286

Cell Line	relative viability (first compound 0.01 µM)	relative viability (first compound 0.03162 µM)	relative viability (first compound 0.1 µM)	relative viability (first compound 0.3162 µM)	relative viability (first compound 1 µM)
NCI-H2023	0.52	0.539	0.6	0.426	0.52
NCI-H2085	0.564	0.461	0.551	0.619	0.471
NCI-H2087	0.137	0.233	0.199	0.196	0.224
NCI-H2126	0.51	0.65	0.483	0.591	0.537
NCI-H2170	0.964	0.906	0.895	0.956	0.94
NCI-H2228	0.553	0.81	0.473	0.384	0.483
NCI-H2347	0.276	0.268	0.27	0.277	0.255
NCI-H2405	0.633	0.676	0.596	0.596	0.584
NCI-H3122	0.244	0.257	0.214	0.22	0.201
PC-3 [JPC-3]	0.669		0.712	0.696	0.554
PC-14	0.82	0.909	0.891	0.726	0.619
RERF-LC-KJ	0.76	0.905	0.949	0.904	0.937
SK-LU-1	0.479	0.556	0.489	0.449	0.45
SK-MES-1	0.562	0.532	0.558	0.57	0.513
SW 900	0.846	0.726	0.761	0.757	0.739
SW 1573	0.568	0.567	0.531	0.636	0.449
UMC-11	0.762	0.761	0.794	0.72	0.539
